Data as given in ChEMBL document CHEMBL4840353, “Investigation on the solid-phase synthesis of silybin prodrugs and their timed-release” (Bioorg Med Chem, 2021).
Values after ≈ are worked out from the molar mass of the structure shown.

What was measured:
[1] = Aqueous solubility of the compound; assay type: physicochemical; settings: buffer
[2] = Antioxidant activity assessed as DPPH radical scavenging activity measured for 60 mins by spectrophotometric analysis; assay type: functional
[3] = Stability in simulated intestinal fluid at pH 6.8 assessed as half life at 1 mM by HPLC analysis; assay type: ADME
[4] = Stability in simulated gastric fluid at pH 1.1 assessed as drug degradation at 1 mM measured after 24 hrs by HPLC analysis; assay type: ADME; settings: read-out: Drug degradation
[5] = Stability in alkaline phosphatase buffer at pH 7.4 assessed as drug degradation at 1 mM measured after 48 hrs by HPLC analysis; assay type: ADME; settings: read-out: Drug degradation
[6] = Prodrug conversion assessed as RNase (unknown origin) -mediated drug release by measuring half life in imidazole buffer at 1 mM by UV/Vis detector based HPLC analysis; assay type: ADME; settings: human, 1000 µM
[7] = Prodrug conversion assessed as RNase (unknown origin)-mediated drug release by measuring half life in simulated intestinal fluid at 1 mM by UV/Vis detector based HPLC analysis; assay type: ADME; settings: human, simulated gi fluid, 1000 µM
SH-SY5Y = experiment: Cytotoxicity against human differentiated SH-SY5Y cells assessed as reduction in cell viability at 2 to 50 uM measured after 48 hrs by MTT assay; assay type: cell-based; settings: dose 2-50 µM

SMILES	solubility [1]	EC50 [2]	half-life at 1000 µM [3]	degraded at 24 h, 1000 µM [4]	degraded at 48 h, 1000 µM [5]	t1/2 [6]	t1/2 [7]	solubility ([1]; read-out: solubility)	Activity (SH-SY5Y)
COc1cc([C@@H]2Oc3cc([C@H]4Oc5cc(O)cc(O)c5C(=O)[C@@H]4O)ccc3O[C@H]2COP(=O)(O)O[C@H]2[C@@H](O)[C@H](n3cnc4c(N)ncnc43)O[C@@H]2CO)ccc1O	Soluble	580 µM	> 24 h	< 5%	< 2%	> 48 h	> 48 h	–	Non-Toxic
COc1cc([C@H]2Oc3cc([C@H]4Oc5cc(O)cc(O)c5C(=O)[C@@H]4O)ccc3O[C@@H]2COP(=O)(O)O[C@H]2[C@@H](O)[C@H](n3cnc4c(N)ncnc43)O[C@@H]2CO)ccc1O	Soluble	630 µM	> 24 h	< 5%	< 2%	> 48 h	> 48 h	–	Non-Toxic
COc1cc([C@@H]2Oc3cc([C@H]4Oc5cc(O)cc(O)c5C(=O)[C@@H]4O)ccc3O[C@H]2CO)ccc1O [SILYBIN B]	–	580 µM	–	–	–	–	–	–	Non-Toxic
COc1cc(C2Oc3cc([C@H]4Oc5cc(O)cc(O)c5C(=O)[C@@H]4O)ccc3OC2COP(=O)(O)O[C@H]2[C@@H](O)[C@H](n3cnc4c(N)ncnc43)O[C@@H]2CO)ccc1O (stereo not given in full)	Soluble	620 µM	> 24 h	< 5%	< 2%	> 48 h	> 48 h	–	Non-Toxic
COc1cc(C2Oc3cc([C@H]4Oc5cc(O)cc(O)c5C(=O)[C@@H]4O)ccc3OC2CO)ccc1O (stereo not given in full) [SILIBININ]	–	620 µM	–	–	–	–	–	1 µM (≈ 0.482 µg/mL)	–

Now from value to compound, other results behind:

solubility [1]	EC50 [2]	half-life at 1000 µM [3]	degraded at 24 h, 1000 µM [4]	degraded at 48 h, 1000 µM [5]	t1/2 [6]	t1/2 [7]	solubility ([1]; read-out: solubility)	SMILES	Activity (SH-SY5Y)
Soluble	530 µM	> 24 h	27%	< 2%	0.833 h	11 h	–	COc1cc([C@@H]2Oc3cc([C@H]4Oc5cc(O)cc(O)c5C(=O)[C@@H]4O)ccc3O[C@H]2COP(=O)(O)O[C@H]2[C@@H](O)[C@H](n3ccc(=O)[nH]c3=O)O[C@@H]2CO)ccc1O	Non-Toxic
Soluble	490 µM	> 24 h	27%	< 2%	1.67 h	20 h	–	COc1cc(C2Oc3cc([C@H]4Oc5cc(O)cc(O)c5C(=O)[C@@H]4O)ccc3OC2COP(=O)(O)O[C@H]2[C@@H](O)[C@H](n3ccc(=O)[nH]c3=O)O[C@@H]2CO)ccc1O (stereo not given in full)	Non-Toxic
–	360 µM	–	–	–	–	–	–	COc1cc([C@H]2Oc3cc([C@H]4Oc5cc(O)cc(O)c5C(=O)[C@@H]4O)ccc3O[C@@H]2CO)ccc1O [SILYBIN A]	Non-Toxic
–	28 µM	–	–	–	–	–	–	Cc1c(C)c2c(c(C)c1O)CCC(C)(C(=O)O)O2 (stereo not given) [TROLOX]	–
Soluble	570 µM	> 24 h	27%	< 2%	1.45 h	13 h	–	COc1cc([C@H]2Oc3cc([C@H]4Oc5cc(O)cc(O)c5C(=O)[C@@H]4O)ccc3O[C@@H]2COP(=O)(O)O[C@H]2[C@@H](O)[C@H](n3ccc(=O)[nH]c3=O)O[C@@H]2CO)ccc1O	Non-Toxic
